# Experimental data: patent EP0505841A2, “Analgesic composition containing beta-carotene” (MILES INC., priority 1991, dated 1992)
# “Also recorded” adds a separate entry of the source.
# Key:
# [1] = tested on: Phenylquinone (PQ) Writhing; test: Phenylquinone (PQ) writhing; type: in vivo, mice; details: for effect on the analgesia (pain relief effects) of aspirin: interaction term p. <.001; for writhing response, means: two-vehicle combination set at zero; for P.Q. WRITHING (INH. %) ± SEM: mice
# Experimental: The test sample is administered orally (mg/kg) to a group of 8 mice one hour before injection of PQ (2 mg/kg intraperitonilly). Greater than 50 percent (>50) inhibition of the number of writhes per group of animals observed during 5 to 10 minutes after PQ, relative to a vehicle treated group, indicates possible analgesic activity. [Irwin, Samuel, Psychopharmacologia, 13:22-257, 1968.] A test was conducted using alpha-tocopherol and aspirin. […] All dosing was done orally (PO). […] Again the writhing response was set at zero for the two-vehicle combination.
# paw edema = test: Carrageenan paw edema, anti-inflammatory test; details: rats, p.o., 3 hrs after carrageenan
# [2] = tested on: Prostaglandin and hydroxyicosatetraenoic acid (HETE) production; details: bovine seminal vesicles and kidney; cited from earlier work
compound,measurement,setting,value
"Cc1c(C)c2c(c(C)c1O)CCC(C)(CCCC(C)CCCC(C)CCCC(C)C)O2 (stereo not drawn) [Alpha-tocopherol, alpha-tocopherol]",effect on the analgesia (pain relief effects) of aspirin,[1]; PO,antagonizes the pain relief effects of aspirin; also recorded: antagonism to the analgesia of aspirin
same,effect on the analgesia (pain relief effects) of aspirin,"[1]; PO, listed as Vitamin E",significant antagonistic effect
same,"writhing response, means","[1]; aspirin Veh., Vitamin E 100 mg.",1
same,"writhing response, means","[1]; aspirin Veh., Vitamin E 300 mg.",2
same,P.Q. WRITHING (INH. %) ± SEM,"[1]; PO, A₀ aspirin vehicle + E₁ alpha-tocopherol 300mg/kg",3 ± 1%
same,P.Q. WRITHING (INH. %) ± SEM,"[1]; PO, A₀ aspirin vehicle + E₂ alpha-tocopherol 100mg/kg",1 ± 1%
same,P.Q. WRITHING (INH. %) ± SEM,"[1]; PO, A₀ aspirin vehicle + E₃ alpha-tocopherol 30 mg/kg",3 ± 1%
same,P.Q. WRITHING (INH. %) ± SEM,"[1]; PO, A₀ aspirin vehicle + E₅ alpha-tocopherol 3 mg/kg",3 ± 1%
"CC(=O)Oc1ccccc1C(=O)O [Aspirin, aspirin]",Mean Paw Volumes,paw edema; A1 aspirin 10 mg/kg + B0 ß-carotene vehicle,79.1 ml. x 10^-2
same,Mean Paw Volumes,paw edema; A2 aspirin 30 mg/kg + B0 ß-carotene vehicle,73.9 ml. x 10^-2
same,Mean Paw Volumes,paw edema; A3 aspirin 100 mg/kg + B0 ß-carotene vehicle,58.9 ml. x 10^-2
same,Mean Paw Volumes,paw edema; A4 aspirin 300 mg/kg + B0 ß-carotene vehicle,38.8 ml. x 10^-2
same,ED20,"[1]; Mus musculus, PO, also used as dose level A₁, read-out: ED₂₀",8.3 mg/kg
same,ED50,"[1]; Mus musculus, PO, also used as dose level A₂, read-out: ED₅₀",25 mg/kg
same,ED80,"[1]; Mus musculus, PO, also used as dose level A₃, read-out: ED₈₀",75 mg/kg
same,"writhing response, means","[1]; aspirin ED20, Vitamin E Vehicle",20
same,"writhing response, means","[1]; aspirin ED50, Vitamin E Vehicle",48
same,"writhing response, means","[1]; aspirin ED80, Vitamin E Vehicle",85
same,P.Q. WRITHING (INH. %) ± SEM,"[1]; PO, A₁ aspirin 8.3 mg/kg + E₀ alpha-tocopherol vehicle",20 ± 1%
same,P.Q. WRITHING (INH. %) ± SEM,"[1]; PO, A₂ aspirin 25 mg/kg + E₀ alpha-tocopherol vehicle",48 ± 2%
same,P.Q. WRITHING (INH. %) ± SEM,"[1]; PO, A₃ aspirin 75 mg/kg + E₀ alpha-tocopherol vehicle",85 ± 2%
CC1=C(/C=C/C(C)=C/C=C/C(C)=C/CO)C(C)(C)CCC1 [retinol],Prostaglandin and hydroxyicosatetraenoic acid (HETE) production,[2],considerably inhibited
"CC1=C(/C=C/C(C)=C/C=C/C(C)=C/C=C/C=C(C)/C=C/C=C(C)/C=C/C2=C(C)CCCC2(C)C)C(C)(C)CCC1 [β-Carotene, ß-carotene]",Mean Paw Volumes,paw edema; A0 aspirin vehicle + B1 ß-carotene 10 mg/kg,86.0(.24) ml. x 10^-2
same,Mean Paw Volumes,paw edema; A0 aspirin vehicle + B2 ß-carotene 30 mg/kg,86.5(.14) ml. x 10^-2
same,Mean Paw Volumes,paw edema; A0 aspirin vehicle + B3 ß-carotene 100 mg/kg,81.6(.16) ml. x 10^-2
same,Mean Paw Volumes,paw edema; A0 aspirin vehicle + B4 ß-carotene 300 mg/kg,81.9(.21) ml. x 10^-2
same,Prostaglandin and hydroxyicosatetraenoic acid (HETE) production,[2],considerably inhibited
